Data: US20250171437A1 (Agios Pharmaceuticals,Inc., priority 2022, published 2025)

Molecular target: T1, human PAH with the R408W mutation (A375 R408W cells) (Homo sapiens, UniProt P00439, R408W)
T1 construct: expressed in transfected cells
T1 sequence (P00439 1-452 R408W): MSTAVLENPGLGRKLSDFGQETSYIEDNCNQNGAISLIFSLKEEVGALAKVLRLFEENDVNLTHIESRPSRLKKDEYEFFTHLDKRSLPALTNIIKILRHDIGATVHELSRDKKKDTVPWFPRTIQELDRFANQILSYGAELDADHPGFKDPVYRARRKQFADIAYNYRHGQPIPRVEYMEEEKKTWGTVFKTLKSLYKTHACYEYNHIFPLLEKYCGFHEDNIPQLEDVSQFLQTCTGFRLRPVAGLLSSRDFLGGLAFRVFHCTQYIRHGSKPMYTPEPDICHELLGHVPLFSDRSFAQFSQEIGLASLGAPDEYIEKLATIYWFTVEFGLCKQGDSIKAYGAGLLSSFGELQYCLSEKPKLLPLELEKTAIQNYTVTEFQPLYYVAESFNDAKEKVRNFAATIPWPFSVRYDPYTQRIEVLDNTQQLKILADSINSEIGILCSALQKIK
Test: Cell Based Phenylalanine Flux Assay
Conditions: A375 R408W cells; 24 hrs with compound, then 20 μM sepiapterin and 800 μM 13C9,15N-Phenylalanine for 4 hours; 13C-Tyrosine by LC-MS; average where tested multiple times
In short: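 LC-MS quantitation of 13C-tyrosine in media gave AC50 values. Stable A375 R408W PAH cells were preincubated 24 h with compound, then fed 800 μM labelled Phe plus 20 μM sepiapterin for 4 h. Dose curves were 10-point, tested in duplicate, averaged over repeat runs.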

Row | AC50 | SMILES
1 | ≤ 500 nM | O=C(c1nnc(-c2c(F)cccc2F)o1)N1CCc2[nH]cnc2[C@H]1c1nc2cc(F)ccc2o1 [Example 25, (S)-(5-(2,6-difluorophenyl)-1,3,4-oxadiazol-2-yl)(4-(5-fluorobenzo[d]oxazol-2-yl)-6,7-dihydro-1H-imidazo[4,5-c]pyridin-5(4H)-yl)methanone]
2 | 500 to 1000 nM | O=C(c1nnc(-c2c(F)cccc2F)o1)N1CCc2[nH]cnc2[C@@H]1c1nc2cc(F)ccc2o1 [Example 26, (R)-(5-(2,6-difluorophenyl)-1,3,4-oxadiazol-2-yl)(4-(5-fluorobenzo[d]oxazol-2-yl)-6,7-dihydro-1H-imidazo[4,5-c]pyridin-5(4H)-yl)methanone]
3 | ≤ 500 nM | O=C(c1nnc(-c2ccc(F)cc2)o1)N1CCc2[nH]cnc2[C@H]1c1nc2cc(F)ccc2o1 [Example 27, (S)-(4-(5-fluorobenzo[d]oxazol-2-yl)-6,7-dihydro-1H-imidazo[4,5-c]pyridin-5(4H)-yl)(5-(4-fluorophenyl)-1,3,4-oxadiazol-2-yl)methanone]
4 | 1000 to 5000 nM | O=C(c1nnc(-c2ccc(F)cc2)o1)N1CCc2[nH]cnc2[C@@H]1c1nc2cc(F)ccc2o1 [Example 28, (R)-(4-(5-fluorobenzo[d]oxazol-2-yl)-6,7-dihydro-1H-imidazo[4,5-c]pyridin-5(4H)-yl)(5-(4-fluorophenyl)-1,3,4-oxadiazol-2-yl)methanone]
5 | 1000 to 5000 nM | COCc1ccc2c(C(=O)N3CCc4[nH]cnc4[C@H]3c3nc4cc(F)ccc4o3)cnn2c1 [Example 29, (S)-(4-(5-fluorobenzo[d]oxazol-2-yl)-6,7-dihydro-1H-imidazo[4,5-c]pyridin-5(4H)-yl)(6-(methoxymethyl)pyrazolo[1,5-a]pyridin-3-yl)methanone]
6 | 500 to 1000 nM | Cc1nc(-c2ccccn2)oc1C(=O)N1CCc2[nH]cnc2[C@H]1c1nc2cc(F)ccc2o1 [Example 31, (S)-(4-(5-fluorobenzo[d]oxazol-2-yl)-6,7-dihydro-1H-imidazo[4,5-c]pyridin-5(4H)-yl)(4-methyl-2-(pyridin-2-yl)oxazol-5-yl)methanone]
7 | 1000 to 5000 nM | Cc1nc(-c2ccccn2)oc1C(=O)N1CCc2[nH]cnc2[C@@H]1c1nc2cc(F)ccc2o1 [Example 32, (R)-(4-(5-fluorobenzo[d]oxazol-2-yl)-6,7-dihydro-1H-imidazo[4,5-c]pyridin-5(4H)-yl)(4-methyl-2-(pyridin-2-yl)oxazol-5-yl)methanone]
8 | 500 to 1000 nM | O=C(c1nnc(-c2ccc(F)cn2)o1)N1CCc2[nH]cnc2[C@H]1c1nc2cc(F)ccc2o1 [Example 33, (S)-(4-(5-fluorobenzo[d]oxazol-2-yl)-6,7-dihydro-1H-imidazo[4,5-c]pyridin-5(4H)-yl)(5-(5-fluoropyridin-2-yl)-1,3,4-oxadiazol-2-yl)methanone]
9 | 1000 to 5000 nM | O=C(c1nnc(-c2ccc(F)cn2)o1)N1CCc2[nH]cnc2[C@@H]1c1nc2cc(F)ccc2o1 [Example 34, (R)-(4-(5-fluorobenzo[d]oxazol-2-yl)-6,7-dihydro-1H-imidazo[4,5-c]pyridin-5(4H)-yl)(5-(5-fluoropyridin-2-yl)-1,3,4-oxadiazol-2-yl)methanone]
10 | 500 to 1000 nM | CC(F)(F)c1ncc(C(=O)N2CCc3[nH]cnc3[C@H]2c2nc3cc(F)ccc3o2)s1 [Example 35, (S)-(2-(1,1-difluoroethyl)thiazol-5-yl)(4-(5-fluorobenzo[d]oxazol-2-yl)-6,7-dihydro-1H-imidazo[4,5-c]pyridin-5(4H)-yl)methanone]
11 | 1000 to 5000 nM | CC(F)(F)c1ncc(C(=O)N2CCc3[nH]cnc3[C@@H]2c2nc3cc(F)ccc3o2)s1 [Example 36, (R)-(2-(1,1-difluoroethyl)thiazol-5-yl)(4-(5-fluorobenzo[d]oxazol-2-yl)-6,7-dihydro-1H-imidazo[4,5-c]pyridin-5(4H)-yl)methanone]
12 | 1000 to 5000 nM | O=C(CC1CC1)N1CCc2[nH]cnc2[C@H]1c1nc2cc(F)ccc2o1 [Example 37, (S)-2-cyclopropyl-1-(4-(5-fluorobenzo[d]oxazol-2-yl)-6,7-dihydro-1H-imidazo[4,5-c]pyridin-5(4H)-yl)ethanone]
13 | 1000 to 5000 nM | O=C(CC1CC1)N1CCc2[nH]cnc2[C@@H]1c1nc2cc(F)ccc2o1 [Example 38, (R)-2-cyclopropyl-1-(4-(5-fluorobenzo[d]oxazol-2-yl)-6,7-dihydro-1H-imidazo[4,5-c]pyridin-5(4H)-yl)ethanone]
14 | 500 to 1000 nM | O=C(c1nnc(-c2ccccn2)o1)N1CCc2[nH]cnc2[C@H]1c1nc2cc(F)ccc2o1 [Example 39, (S)-(4-(5-fluorobenzo[d]oxazol-2-yl)-6,7-dihydro-1H-imidazo[4,5-c]pyridin-5(4H)-yl)(5-(pyridin-2-yl)-1,3,4-oxadiazol-2-yl)methanone]
15 | 1000 to 5000 nM | O=C(c1nnc(-c2ccccn2)o1)N1CCc2[nH]cnc2[C@@H]1c1nc2cc(F)ccc2o1 [Example 40, (R)-(4-(5-fluorobenzo[d]oxazol-2-yl)-6,7-dihydro-1H-imidazo[4,5-c]pyridin-5(4H)-yl)(5-(pyridin-2-yl)-1,3,4-oxadiazol-2-yl)methanone]
16 | ≤ 500 nM | O=C(c1ocnc1C1CC1)N1CCc2[nH]cnc2[C@H]1c1nc2cc(F)ccc2o1 [Example 41, (S)-(4-cyclopropyloxazol-5-yl)(4-(5-fluorobenzo[d]oxazol-2-yl)-6,7-dihydro-1H-imidazo[4,5-c]pyridin-5(4H)-yl)methanone]
17 | 1000 to 5000 nM | O=C(c1ocnc1C1CC1)N1CCc2[nH]cnc2[C@@H]1c1nc2cc(F)ccc2o1 [Example 42, (R)-(4-cyclopropyloxazol-5-yl)(4-(5-fluorobenzo[d]oxazol-2-yl)-6,7-dihydro-1H-imidazo[4,5-c]pyridin-5(4H)-yl)methanone]
18 | ≤ 500 nM | O=C(c1oc(-c2ccccn2)nc1C1CC1)N1CCc2[nH]cnc2[C@H]1c1nc2cc(F)ccc2o1 [Example 43, (S)-(4-cyclopropyl-2-(pyridin-2-yl)oxazol-5-yl)(4-(5-fluorobenzo[d]oxazol-2-yl)-6,7-dihydro-1H-imidazo[4,5-c]pyridin-5(4H)-yl)methanone]
19 | 1000 to 5000 nM | O=C(c1oc(-c2ccccn2)nc1C1CC1)N1CCc2[nH]cnc2[C@@H]1c1nc2cc(F)ccc2o1 [Example 44, (R)-(4-cyclopropyl-2-(pyridin-2-yl)oxazol-5-yl)(4-(5-fluorobenzo[d]oxazol-2-yl)-6,7-dihydro-1H-imidazo[4,5-c]pyridin-5(4H)-yl)methanone]
20 | ≤ 500 nM | CC(C)(O)c1nc(C(F)(F)F)c(C(=O)N2CCc3[nH]cnc3[C@H]2c2nc3cc(F)ccc3o2)o1 [Example 45, (S)-(4-(5-fluorobenzo[d]oxazol-2-yl)-6,7-dihydro-1H-imidazo[4,5-c]pyridin-5(4H)-yl)(2-(2-hydroxypropan-2-yl)-4-(trifluoromethyl)oxazol-5-yl)methanone]
21 | ≤ 500 nM | CC(C)(O)c1nc(C(F)(F)F)c(C(=O)N2CCc3[nH]cnc3[C@@H]2c2nc3cc(F)ccc3o2)o1 [Example 46, (R)-(4-(5-fluorobenzo[d]oxazol-2-yl)-6,7-dihydro-1H-imidazo[4,5-c]pyridin-5(4H)-yl)(2-(2-hydroxypropan-2-yl)-4-(trifluoromethyl)oxazol-5-yl)methanone]
22 | 1000 to 5000 nM | CN(C)CCc1ccc2c(C(=O)N3CCc4[nH]cnc4[C@H]3c3nc4cc(F)ccc4o3)cnn2c1 [Example 47, (S)-(6-(2-(dimethylamino)ethyl)pyrazolo[1,5-a]pyridin-3-yl)(4-(5-fluorobenzo[d]oxazol-2-yl)-6,7-dihydro-1H-imidazo[4,5-c]pyridin-5(4H)-yl)methanone]
23 | ≥ 5000 nM | CN(C)CCc1ccc2c(C(=O)N3CCc4[nH]cnc4[C@@H]3c3nc4cc(F)ccc4o3)cnn2c1 [Example 48, (R)-(6-(2-(dimethylamino)ethyl)pyrazolo[1,5-a]pyridin-3-yl)(4-(5-fluorobenzo[d]oxazol-2-yl)-6,7-dihydro-1H-imidazo[4,5-c]pyridin-5(4H)-yl)methanone]
24 | ≤ 500 nM | O=C(c1oc(-c2ccccn2)nc1C(F)(F)F)N1CCc2[nH]cnc2[C@H]1c1nc2cc(F)ccc2o1 [Example 49, (S)-(4-(5-fluorobenzo[d]oxazol-2-yl)-6,7-dihydro-1H-imidazo[4,5-c]pyridin-5(4H)-yl)(2-(pyridin-2-yl)-4-(trifluoromethyl)oxazol-5-yl)methanone]
25 | ≤ 500 nM | O=C(c1oc(-c2ccccn2)nc1C(F)(F)F)N1CCc2[nH]cnc2[C@@H]1c1nc2cc(F)ccc2o1 [Example 50, (R)-(4-(5-fluorobenzo[d]oxazol-2-yl)-6,7-dihydro-1H-imidazo[4,5-c]pyridin-5(4H)-yl)(2-(pyridin-2-yl)-4-(trifluoromethyl)oxazol-5-yl)methanone]
26 | ≤ 500 nM | O=C(c1ocnc1C(F)F)N1CCc2[nH]cnc2[C@H]1c1nc2cc(F)ccc2o1 [Example 51, (S)-(4-(difluoromethyl)oxazol-5-yl)(4-(5-fluorobenzo[d]oxazol-2-yl)-6,7-dihydro-1H-imidazo[4,5-c]pyridin-5(4H)-yl)methanone]
27 | 500 to 1000 nM | O=C(c1ocnc1C(F)F)N1CCc2[nH]cnc2[C@@H]1c1nc2cc(F)ccc2o1 [Example 52, (R)-(4-(difluoromethyl)oxazol-5-yl)(4-(5-fluorobenzo[d]oxazol-2-yl)-6,7-dihydro-1H-imidazo[4,5-c]pyridin-5(4H)-yl)methanone]
